Results published in US20250051347A1, “BIFUNCTIONAL CHIMERIC HETEROCYCLIC COMPOUND AND USE THEREOF AS ANDROGEN RECEPTOR DEGRADER” (Hinova Pharmaceuticals, Inc., priority 2021, published 2025).

How the values were obtained:
[1] = target: T1, androgen receptor (AR) splicing variant AR-v7 (Homo sapiens, UniProt P10275); assay: Degradation activity on androgen receptor splicing variant AR-v7 in 22RV1 cells (ELISA); assay type: cell-based; settings: AR-v7 degradation in 22RV1 cells, 48 h, class symbols
T1 construct: The degradation activity of compounds on AR-v7 in 22RV1 cells; host or cells: 22RV1 cells
T1 sequence (P10275 1-644 isoform P10275-3): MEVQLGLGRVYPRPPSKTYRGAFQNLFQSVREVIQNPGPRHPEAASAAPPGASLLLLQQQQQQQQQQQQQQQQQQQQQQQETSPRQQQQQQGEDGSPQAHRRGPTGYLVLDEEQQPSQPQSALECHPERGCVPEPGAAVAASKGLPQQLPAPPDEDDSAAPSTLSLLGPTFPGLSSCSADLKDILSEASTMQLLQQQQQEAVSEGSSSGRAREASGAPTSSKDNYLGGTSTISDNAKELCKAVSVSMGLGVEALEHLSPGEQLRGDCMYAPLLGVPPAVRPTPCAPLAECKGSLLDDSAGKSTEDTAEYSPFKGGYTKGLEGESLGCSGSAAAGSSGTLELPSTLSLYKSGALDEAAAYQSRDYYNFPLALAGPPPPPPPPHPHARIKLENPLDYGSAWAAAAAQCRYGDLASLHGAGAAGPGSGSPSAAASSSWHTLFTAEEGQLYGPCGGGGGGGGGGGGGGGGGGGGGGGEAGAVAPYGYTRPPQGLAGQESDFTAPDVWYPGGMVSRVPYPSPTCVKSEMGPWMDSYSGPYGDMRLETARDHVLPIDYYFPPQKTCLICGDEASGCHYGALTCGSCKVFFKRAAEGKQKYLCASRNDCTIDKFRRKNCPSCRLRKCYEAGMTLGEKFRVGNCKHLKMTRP

[2] = system: 22RV1 cells; settings: Homo sapiens, 22Rv1, 144 h, read-out: 22RV1 IC50 (nM), 22RV1 cells, 6 days culture, CCK-8, OD 450 nm

DC50 [1] [nM]	IC50 [2] [nM]	Structure (SMILES)
< 10	10	CC(C)(c1ccc(OCc2ccnc(-c3cn[nH]c3)n2)cc1)c1ccc(O[C@H]2C[C@@H](Nc3ccc4c(c3)C(=O)N(C3CCC(=O)NC3=O)C4=O)C2)cc1 (some centres unmarked) [Example 273]
< 10	6	CC(C)(c1ccc(OCc2ccnc(-c3ncon3)n2)cc1)c1ccc(O[C@H]2C[C@@H](Nc3ccc4c(c3)C(=O)N(C3CCC(=O)NC3=O)C4=O)C2)cc1 (some centres unmarked) [Example 276]
< 10	5	CC(C)(c1ccc(OCc2ccnc(C#N)n2)cc1)c1ccc(O[C@H]2C[C@@H](Nc3ccc4c(c3)C(=O)N(C3CCC(=O)NC3=O)C4=O)C2)cc1 (some centres unmarked) [Example 277, 4-((4-(2-(4-((1s,3s)-3-((2-(2,6-dioxopiperidin-3-yl)-1,3-dioxoisoindolin-5-yl)amino)cyclobutyloxy)phenyl)propan-2-yl)phenoxy)methyl)pyrimidin-2-carbonitrile]
< 10	6	Cc1nc(-c2nccc(COc3ccc(C(C)(C)c4ccc(O[C@H]5C[C@@H](Nc6ccc7c(c6)C(=O)N(C6CCC(=O)NC6=O)C7=O)C5)cc4)cc3)n2)no1 (some centres unmarked) [Example 278]
< 10	7	CC(Oc1ccc(C(C)(C)c2ccc(O[C@H]3C[C@H](Nc4ccc5c(c4)C(=O)N(C4CCC(=O)NC4=O)C5=O)C3)cc2)cc1)c1ncnc(N2CC3(COC3)C2)c1F (some centres unmarked) [Example 280]
< 10	5	CC(C)(c1ccc(OCc2ccnc(-c3ncon3)n2)cc1)c1ccc(O[C@H]2C[C@H](Nc3ccc4c(c3)C(=O)N(C3CCC(=O)NC3=O)C4=O)C2)cc1 (some centres unmarked) [Example 281]
< 10	4	Cc1nc(-c2nccc(Oc3ccc(C(C)(C)c4ccc(O[C@H]5C[C@H](Nc6ccc7c(c6)C(=O)N(C6CCC(=O)NC6=O)C7=O)C5)cc4)cc3)n2)no1 (some centres unmarked) [Example 288]
< 10	7	Cc1nnc(-c2nccc(Oc3ccc(C(C)(C)c4ccc(O[C@H]5C[C@H](Nc6ccc7c(c6)C(=O)N(C6CCC(=O)NC6=O)C7=O)C5)cc4)cc3)n2)o1 (some centres unmarked) [Example 289]
< 10	7	CC(C)C(O)c1ncc(Oc2ccc(C(C)(C)c3ccc(O[C@H]4C[C@H](Nc5ccc6c(c5)C(=O)N(C5CCC(=O)NC5=O)C6=O)C4)cc3)cc2)cn1 (some centres unmarked) [Example 290]
< 10	16	CC(C)C(=O)c1ncc(Oc2ccc(C(C)(C)c3ccc(O[C@H]4C[C@H](Nc5ccc6c(c5)C(=O)N(C5CCC(=O)NC5=O)C6=O)C4)cc3)cc2)cn1 (some centres unmarked) [Example 291]
< 10	2.5	Cc1nc(-c2ncc(Oc3ccc(C4(c5ccc(O[C@H]6C[C@H](Nc7ccc8c(c7)C(=O)N(C7CCC(=O)NC7=O)C8=O)C6)cc5)CCCC4)cc3)cn2)no1 (some centres unmarked) [Example 293]
< 10	4.2	CCC(CC)(c1ccc(Oc2cnc(C(C)=O)cn2)cc1)c1ccc(O[C@H]2C[C@H](Nc3ccc4c(c3)C(=O)N(C3CCC(=O)NC3=O)C4=O)C2)cc1 (some centres unmarked) [Example 294]
< 10	11	CCC(CC)(c1ccc(Oc2cnc(C(C)O)cn2)cc1)c1ccc(O[C@H]2C[C@@H](Nc3ccc4c(c3)C(=O)N(C3CCC(=O)NC3=O)C4=O)C2)cc1 (some centres unmarked) [Example 295]
< 10	7	CCC(CC)(c1ccc(Oc2cnc(C(C)=O)cn2)cc1)c1ccc(O[C@H]2C[C@@H](Nc3ccc4c(c3)C(=O)N(C3CCC(=O)NC3=O)C4=O)C2)cc1 (some centres unmarked) [Example 296]
< 10	13	CC(=O)c1nccc(COc2ccc(C(C)(C)c3ccc(OC[C@H](CCCl)Nc4ccc5c(c4)C(=O)N(C4CCC(=O)NC4=O)C5=O)cc3)cc2)n1 (some centres unmarked) [Example 306]
11 to 100	19	CC(=O)c1nccc(COc2ccc(C(C)(C)c3ccc(OC[C@@H]4CCN4c4ccc5c(c4)C(=O)N(C4CCC(=O)NC4=O)C5=O)cc3)cc2)n1 (stereo partly drawn) [Example 308, 5-((S)-2-((4-(2-(4-((2-acetylpyrimidin-4-yl)methoxy)phenyl)propan-2-yl)phenoxy)methyl)azetidin-1-yl)-2-(2,6-dioxopiperidin-3-yl)isoindolin-1,3-dione]
< 10	18	CC(C)(c1ccc(Oc2ncc(N3CC4(COC4)C3)cn2)cc1)c1ccc(O[C@H]2C[C@H](Nc3ccc4c(c3)C(=O)N(C3CCC(=O)NC3=O)C4=O)C2)cc1 (some centres unmarked) [Example 311]
< 10	18	Cc1noc(-c2ccc(Oc3ccc(C(C)(C)c4ccc(O[C@H]5C[C@H](Nc6ccc7c(c6)C(=O)N(C6CCC(=O)NC6=O)C7=O)C5)cc4)cc3)nn2)n1 (some centres unmarked) [Example 331]
< 10	3	CC(C)(c1ccc(Oc2cccnn2)cc1)c1ccc(O[C@H]2C[C@H](Nc3ccc4c(c3)C(=O)N(C3CCC(=O)NC3=O)C4=O)C2)cc1 (some centres unmarked) [Example 333, 2-(2,6-dioxopiperidin-3-yl)-5-((1r,3r)-3-(4-(2-(4-(pyridazine-3-oxy)phenyl)propan-2-yl)phenoxy)cyclobutyl)aminoisoindolin-1,3-dione]
< 10	2	Cc1nc(-c2ncc(Oc3ccc(C4(c5ccc(O[C@H]6C[C@H](Nc7ccc8c(c7)C(=O)N(C7CCC(=O)NC7=O)C8=O)C6)cc5)CCCCC4)cc3)cn2)no1 (some centres unmarked) [Example 339]
11 to 100	19	CC(=O)c1nccc(COc2ccc(C(C)(C)c3ccc(OCCCNc4ccc5c(c4)C(=O)N(C4CCC(=O)NC4=O)C5=O)cc3)cc2)n1 (centres unmarked) [Example 343, 5-((3-(4-(2-(4-((2-acetylpyrimidin-4-yl)methoxy)phenyl)isopropan-2-yl)phenoxy)propyl)amino)-2-(2,6-dioxopiperidin-3-yl)isoindolin-1,3-dione]
11 to 100	10	CC(O)c1nccc(COc2ccc(C(C)(C)c3ccc(OCCCNc4ccc5c(c4)C(=O)N(C4CCC(=O)NC4=O)C5=O)cc3)cc2)n1 (centres unmarked) [Example 345, 2-(2,6-dioxopiperidin-3-yl)-5-((3-(4-(2-(4-((2-(1-hydroxylethyl)pyrimidin-4-yl)methoxy)phenyl)isopropan-2-yl)phenoxy)propyl)amino)isoindolin-1,3-dione]
11 to 100	30	CCC(CC)(c1ccc(OCCCNc2ccc3c(c2)C(=O)N(C2CCC(=O)NC2=O)C3=O)cc1)c1ccc(OCc2ccnc(C(C)=O)n2)cc1 (centres unmarked) [Example 350, 5-((3-(4-(3-(4-((2-acetylpyrimidin-4-yl)methoxy)phenyl)pentan-3-yl)phenoxy)propyl)amino)-2-(2,6-dioxopiperidin-3-yl)isoindolin-1,3-dione]
< 10	7	CC(=O)c1nccc(COc2ccc(C3(c4ccc(OCCCNc5ccc6c(c5)C(=O)N(C5CCC(=O)NC5=O)C6=O)cc4)CCC3)cc2)n1 (centres unmarked) [Example 351, 5-((3-(4-(1-(4-((2-acetylpyrimidin-4-yl)methoxy)phenyl)cyclobutyl)phenoxy)propyl)amino)-2-(2,6-dioxopiperidin-3-yl)isoindolin-1,3-dione]
< 10	16	O=C1CCC(N2C(=O)c3ccc(NC4CC(Oc5ccc(C6(c7ccc(OCc8ccnc(N9CC%10(COC%10)C9)n8)cc7)CCC6)cc5)C4)cc3C2=O)C(=O)N1 (centres unmarked) [Example 356, 5-((3-(4-(1-(4-((2-(2-oxa-6-azaspiro[3.3]heptane-6-yl)pyrimidin-4-yl)methoxy)phenyl)cyclobutyl)phenoxy)cyclobutyl)amino)-2-(2,6-dioxopiperidin-3-yl)isoindolin-1,3-dione]
< 10	5	COc1nccc(COc2ccc(C3(c4ccc(O[C@H]5C[C@H](Nc6ccc7c(c6)C(=O)N(C6CCC(=O)NC6=O)C7=O)C5)cc4)CCC3)cc2)n1 (some centres unmarked) [Example 357, 2-(2,6-dioxopiperidin-3-yl)-5-(((1r,3r)-3-(4-(1-(4-((2-methoxypyrimidin-4-yl)methoxy)phenyl)cyclobutyl)phenoxy)cyclobutyl)amino)isoindolin-1,3-dione]
< 10	24	O=C1CCC(N2C(=O)c3ccc(N[C@H]4C[C@@H](Oc5ccc(S(=O)(=O)c6ccc(OCc7ccnc(N8CC9(COC9)C8)n7)cc6)cc5)C4)cc3C2=O)C(=O)N1 (some centres unmarked) [Example 363, 5-(((1s,3s)-3-(4-((4-((2-(2-oxa-6-azaspiro[3.3]heptane-6-yl)pyrimidin-4-yl)methoxy)phenyl)sulfonyl)phenoxy)cyclobutyl)amino)-2-(2,6-dioxopiperidin-3-yl)isoindolin-1,3-dione]
< 10	9	CC(C)(c1ccc(OCc2ccnc(N3CC4(COC4)C3)n2)c(F)c1)c1ccc(O[C@H]2C[C@H](Nc3ccc4c(c3)C(=O)N(C3CCC(=O)NC3=O)C4=O)C2)c(F)c1 (some centres unmarked) [Example 365, 5-(((1r,3r)-3-(4-(2-(4-((2-(2-oxa-6-azaspiro[3.3]heptane-6-yl)pyrimidin-4-yl)methoxy)-3-fluorophenyl)isopropan-2-yl)-2-fluorophenoxy)cyclobutyl)amino)-2-(2,6-dioxopiperidin-3-yl)isoindolin-1,3-dione]
